Results taken from ChEMBL document CHEMBL1129022, “Synthesis and antibacterial activity of new tropone-substituted phenyloxazolidinone antibacterial agents 2. Modification of the phenyl ring the potentiating effect of fluorine substitution on in vivo activity” (1996).
In brackets after ≈: the same amount, converted by molar mass.

What was measured:
Format in all cases: functional
Staphylococcus aureus [1] = assay: Compound was tested in vitro for antibacterial activity against methicillin-susceptible Staphylococcus aureus UC 9213.
Streptococcus pneumoniae = assay: Compound was tested in vitro for antibacterial activity against Streptococcus pneumoniae UC 9912.
[2] = system: Staphylococcus epidermidis; assay: Compound was tested in vitro for antibacterial activity against methicillin-resistant Staphylococcus epidermidis UC 12084.
Enterococcus faecalis = assay: Compound was tested in vitro for antibacterial activity against Enterococcus faecalis UC 9217.
Escherichia coli [3] = assay: Compound was tested in vitro for antibacterial activity against Escherichia coli extracts, using cell free prokaryotic transcription coupled translation (T/T) assay at 2 ug/mL
Mus musculus = assay: Amount of drug required (mg/kg body weight/dose) to cure 50% of infected mice subjected to a lethal systemic infection with Staphylococcus aureus UC 9213
Bacteroides fragilis = assay: Compound was tested in vitro for antibacterial activity against Bacteroides fragilis UC 12199.
[4] = system: Mycobacterium tuberculosis; assay: Compound was tested in vitro for antibacterial activity against Mycobacterium tuberculosis H37Rv.
Staphylococcus aureus [5] = assay: Compound was tested in vitro for antibacterial activity against methicillin-resistant Staphylococcus aureus UC 6685
Escherichia coli [6] = assay: Compound was tested in vitro for antibacterial activity against Escherichia coli extracts, using cell free prokaryotic transcription coupled translation (T/T) assay.; details: dose or concentration not given here

Row | SMILES | MIC (Staphylococcus aureus [1]) | MIC (Streptococcus pneumoniae) | MIC [2] | MIC (Enterococcus faecalis) | inhibition (Escherichia coli [3]) | ED50 (Mus musculus) | MIC (Bacteroides fragilis) | MIC [4] | MIC (Staphylococcus aureus [5]) | inhibition (Escherichia coli [6])
1 | COc1ccc(-c2ccc(N3CC(CNC(C)=O)OC3=O)cc2C(F)(F)F)ccc1=O (centres undefined) | 32 µg/mL (≈ 73.3 µM) | 4 µg/mL (≈ 9.17 µM) | 4 µg/mL (≈ 9.17 µM) | 16 µg/mL (≈ 36.7 µM) | 58% | > 20 mg/kg | – | – | – | –
2 | COc1ccc(-c2ccc(N3CC(CNC(C)=O)OC3=O)cc2Cl)ccc1=O (centres undefined) | 4 µg/mL (≈ 9.93 µM) | 1 µg/mL (≈ 2.48 µM) | 1 µg/mL (≈ 2.48 µM) | 2 µg/mL (≈ 4.96 µM) | 71% | > 20 mg/kg | – | – | – | –
3 | COc1ccc(-c2ccc(N3C[C@H](CNC(C)=O)OC3=O)cc2F)ccc1=O | 1 µg/mL (≈ 2.59 µM) | 0.125 µg/mL (≈ 0.324 µM) | 0.25 µg/mL (≈ 0.647 µM) | 0.5 µg/mL (≈ 1.29 µM) | – | 4.1 mg/kg | 8 µg/mL (≈ 20.7 µM) | < 1 µg/mL | 0.5 µg/mL (≈ 1.29 µM) | –
4 | C/N=c1\ccc(-c2ccc(N3C[C@H](CNC(C)=O)OC3=O)cc2F)ccc1O | 0.5 µg/mL (≈ 1.3 µM) | 0.125 µg/mL (≈ 0.324 µM) | 0.125 µg/mL (≈ 0.324 µM) | 0.25 µg/mL (≈ 0.649 µM) | – | – | 2 µg/mL (≈ 5.19 µM) | – | 0.25 µg/mL (≈ 0.649 µM) | –
5 | COc1ccc(-c2c(F)cc(N3CC(CNC(C)=O)OC3=O)cc2F)ccc1=O (centres undefined) | 2 µg/mL (≈ 4.95 µM) | 0.5 µg/mL (≈ 1.24 µM) | 0.5 µg/mL (≈ 1.24 µM) | 1 µg/mL (≈ 2.47 µM) | – | 3.7 mg/kg | – | – | – | 85%
6 | C#CCNc1ccc(-c2ccc(N3C[C@H](CNC(C)=O)OC3=O)cc2F)ccc1=O | 1 µg/mL (≈ 2.44 µM) | 0.125 µg/mL (≈ 0.305 µM) | 0.25 µg/mL (≈ 0.611 µM) | 0.5 µg/mL (≈ 1.22 µM) | – | 1.3 mg/kg | 2 µg/mL (≈ 4.88 µM) | – | 0.5 µg/mL (≈ 1.22 µM) | –
7 | COc1ccc(-c2ccc(N3CC(CNC(C)=O)OC3=O)cc2)ccc1=O (centres undefined) | 2 µg/mL (≈ 5.43 µM) | 0.25 µg/mL (≈ 0.679 µM) | 0.5 µg/mL (≈ 1.36 µM) | 1 µg/mL (≈ 2.71 µM) | 89% | 12.2 mg/kg | – | – | – | –
8 | COc1ccc(-c2c(F)cc(N3C[C@H](CNC(C)=O)OC3=O)cc2F)ccc1=O | 1 µg/mL (≈ 2.47 µM) | 0.25 µg/mL (≈ 0.618 µM) | 0.5 µg/mL (≈ 1.24 µM) | 1 µg/mL (≈ 2.47 µM) | – | 2.3 mg/kg | 8 µg/mL (≈ 19.8 µM) | – | 0.5 µg/mL (≈ 1.24 µM) | –
9 | CN[C@H](CC(C)C)C(=O)N[C@H]1C(=O)N[C@@H](CC(N)=O)C(=O)N[C@H]2C(=O)N[C@H]3C(=O)N[C@H](C(=O)N[C@H](C(=O)O)c4cc(O)cc(O)c4-c4cc3ccc4O)[C@H](O)c3ccc(c(Cl)c3)Oc3cc2cc(c3O[C@@H]2O[C@H](CO)[C@@H](O)[C@H](O)[C@H]2O[C@H]2C[C@](C)(N)[C@H](O)[C@H](C)O2)Oc2ccc(cc2Cl)[C@H]1O [VANCOMYCIN] | – | 0.5 µg/mL (≈ 0.345 µM) | – | – | – | 2.2 mg/kg | – | – | – | –
10 | COc1ccc(-c2ccc(N3CC(CNC(C)=O)OC3=O)cc2F)ccc1=O (centres undefined) | 1 µg/mL (≈ 2.59 µM) | 0.25 µg/mL (≈ 0.647 µM) | 0.5 µg/mL (≈ 1.29 µM) | 1 µg/mL (≈ 2.59 µM) | – | 7.7 mg/kg | – | – | – | –
